Structures can show the parent of a compound that is named as a salt.
What was measured:
[1] = Transdermal delivery of testosterone and testosterone phosphate in the hairless rat model; total testosterone in plasma; settings: topical carrier cream; for concentration of testosterone in blood after application: 1 μg
[2] = females using the patches; cited from earlier work
rats = experiment: Efficacy of atropine phosphate compared to atropine sulfate: heart rate after intravenous administration; type: in vivo; settings: for heart rate after administration: IV 2 mg/kg in phosphate buffer, baseline approx. 350 bpm
Experimental: The efficacy of atropine phosphate when compared to atropine sulfate was investigated in this example.
Atropine sulfate and atropine phosphate formulated in phosphate buffer and given intravenously (IV) each to two rats at 2 mg/kg resulted similar increases in heart rates.
For example, the baseline heart rate of a rat was approx. 350 bpm and increased to 450 bpm within 15 minutes after administration of atropine (either atropine phosphate or atropine sulfate). Approximately two hours later, normal heart rates were restored. This is regarded as a significant change in pulse rate.

[3] = Transdermal delivery of estradiol and estradiol phosphate in the hairless rat model; total estrogens RIA in plasma
[4] = Acute transdermal penetration of 3H-Estradiol and 3H-Estradiol Phosphate in the hairless rat model; type: in vivo, female albino hairless rats; settings: 24-hour period

Testosterone Phosphate [TP]
concentration of testosterone in blood after application [1]: increased

C[C@]12CC[C@@H]3c4ccc(O)cc4CC[C@H]3[C@@H]1CC[C@@H]2O [E, Estradiol]
females reporting skin irritation [2]: up to 17%

C[C@]12CC[C@H]3[C@@H](CCC4=CC(=O)CC[C@@]43C)[C@@H]1CC[C@@H]2O [T, Testosterone]
concentration of testosterone in blood after application [1]: increased | maximum concentration of total testosterone in plasma (mean±SD) ([1]; 1 μg on about 4 cm^2 dorsal skin, baseline t=0 subtracted): 30.90 ± 11.00 pg/mL

CN1[C@@H]2CC[C@H]1C[C@@H](OC(=O)C(CO)c1ccccc1)C2 (stereo partly drawn) [atropine sulfate, reference compound]
time until normal heart rates were restored (rats; IV 2 mg/kg): Approximately two | heart rate after administration (rats): 450 bpm

C[C@]12CC[C@@H]3c4ccc(O)cc4CC[C@H]3[C@@H]1CC[C@@H]2OP(=O)(O)O [EP, Estradiol Phosphate]
plasma concentration of the hormone compared to the E treatment ([3]; equivalent doses applied, 24-hour period): at least twice | concentration of estradiol in blood versus estradiol application ([3]; over a 24-hour period, P<0.01 at 2, 4 and 16 hours): consistently higher | levels in the epidermis and dermis [4]: Higher levels

CN1[C@@H]2CC[C@H]1CC(OC(=O)C(CO)c1ccccc1)C2.O=P(O)(O)O (stereo partly drawn) [atropine phosphate]
effect on pulse rate (rats; IV 2 mg/kg): effective to increase pulse rate | time until normal heart rates were restored (rats; IV 2 mg/kg): Approximately two | heart rate after administration (rats): 450 bpm
